Measurements taken from PubChem BioAssay (NCI).
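Exposure lasted 48 hours, with cells grown in 96-well plates and compounds tested at five concentrations. Abbreviation: GI50, concentration required for 50% inhibition of growth. TGI marks complete inhibition of growth.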

Columns and labels:
Assay in all cases: growth of human tumour cells (NCI), 48 h
A498 renal = system: A498 renal
BT-549 breast = system: BT-549 breast
CAKI-1 renal = system: CAKI-1 renal
DU-145 prostate = system: DU-145 prostate
HCT-116 colon = system: HCT-116 colon
HOP-92 NSCLC = system: HOP-92 NSCLC
SK-MEL-28 melanoma = system: SK-MEL-28 melanoma
SW-620 colon = system: SW-620 colon
UO-31 renal = system: UO-31 renal
HCC-2998 colon = system: HCC-2998 colon

Compound | TGI (A498 renal) | TGI (BT-549 breast) | TGI (CAKI-1 renal) | TGI (DU-145 prostate) | TGI (HCT-116 colon) | TGI (HOP-92 NSCLC) | TGI (SK-MEL-28 melanoma) | TGI (SW-620 colon) | TGI (UO-31 renal) | GI50 (A498 renal) | GI50 (BT-549 breast) | GI50 (CAKI-1 renal) | GI50 (DU-145 prostate) | GI50 (HCC-2998 colon) | TGI (HCC-2998 colon) | GI50 (HCT-116 colon) | GI50 (SK-MEL-28 melanoma) | GI50 (SW-620 colon) | GI50 (UO-31 renal) | GI50 (HOP-92 NSCLC)
O=C(O)CSc1ncccc1[N+](=O)[O-] | > 100 µM | > 100 µM | > 100 µM | > 100 µM | > 100 µM | > 100 µM | > 100 µM | > 100 µM | > 100 µM |  |  |  |  |  |  |  |  |  |  | 
CC(C)Oc1cc(O)c2c(c1)OCC=C2CCC(=O)O | 56.6 µM | > 100 µM | > 100 µM | > 100 µM | 66.5 µM | 76.6 µM | > 100 µM | > 100 µM | 89.1 µM |  |  |  |  |  |  |  |  |  |  | 
O=[N+]([O-])c1nccn1COCCBr |  |  | > 100 µM |  | > 100 µM | > 100 µM | > 100 µM | > 100 µM | > 100 µM |  |  |  |  |  |  |  |  |  |  | 
CCC(c1cccc(O)c1)C(CC)c1cccc(O)c1 (configuration not stated) | 16.7 µM | 14.3 µM | 33 µM | 29.9 µM | 14.5 µM |  | 18.2 µM | 16.4 µM | 17.8 µM | 4.35 µM | 1.09 µM | 11.9 µM | 11 µM | 5.18 µM | 18.3 µM | 3.66 µM | 4.9 µM | 4.44 µM | 4.23 µM | 
CCN(CC)c1ccc2c(c1)Nc1cc(=C(C#N)C#N)c3ccccc3c1=N2 | > 100 µM |  | > 100 µM |  | > 100 µM | > 100 µM | > 100 µM | > 100 µM | > 100 µM |  |  |  |  |  | > 100 µM |  |  |  |  | 
Cc1c2cc[n+](C)cc2c(C)c2c1[nH]c1ccc(O)c(OCC(F)(F)F)c12 | 32 µM |  | 29 µM |  | 12.1 µM | 17.4 µM | 16 µM | > 55 µM | 25.6 µM |  |  |  |  |  | 46.4 µM |  |  |  |  | 
OCC1OC(n2cnc3c(/C=C(/O)c4ccccc4)ncnc32)C(O)C1O (configuration not stated) | > 91.1 µM | > 100 µM | > 100 µM | > 100 µM | > 100 µM | > 100 µM | > 100 µM | > 100 µM | > 35.7 µM |  |  |  |  |  |  |  |  |  |  | 
S=c1nc(-c2cccnc2)[nH][nH]1 | > 100 µM |  | > 1 µM |  | > 100 µM | > 100 µM | > 100 µM | > 100 µM |  |  |  |  |  |  | > 100 µM |  |  |  |  | 
COc1ccc2c(c1)[n+]([O-])c(/C(C)=N/NC(=O)CC#N)c[n+]2[O-] | > 100 µM |  | > 100 µM |  | > 100 µM | > 100 µM | > 100 µM | 25.8 µM | > 100 µM |  |  |  |  |  | > 100 µM |  |  |  |  | 
CCOC(=O)[C@H]1Nc2ccc(OC)cc2C2c3ccccc3CC21 (some centres not stated) | > 100 µM |  | > 100 µM |  | > 100 µM |  | > 100 µM | > 100 µM | > 100 µM |  |  |  |  |  | > 100 µM |  |  |  |  | 
CN1C(=O)C(Cl)(C(Cl)(Cl)S(=O)(=O)O)C(=O)c2ccccc21 (configuration not stated) | > 100 µM |  | > 100 µM |  | > 100 µM | > 100 µM | > 100 µM | > 100 µM | > 100 µM |  |  |  |  |  | > 100 µM |  |  |  |  | 
O=C([CH-]C(=O)C(F)(F)F)c1ccccc1.O=C([CH-]C(=O)C(F)(F)F)c1ccccc1.O=C([CH-]C(=O)C(F)(F)F)c1ccccc1.O=C([CH-]C(=O)C(F)(F)F)c1ccccc1.[Eu+3].c1ccncc1 | 88.8 µM |  |  |  | 71 µM | 45.6 µM | > 100 µM | > 100 µM |  | 18.4 µM |  |  |  |  |  | 7.53 µM | 14.3 µM | 11.9 µM |  | 9.02 µM
